For series [1] the following is noted: in vivo.
The target in series [2] is NRI (Homo sapiens, UniProt P23975). It counts as binding.
Series [3] relates to Huh7 parental cells.
The test system of series [4] is Huh7 cells expressing a subgenomic RNA replicon of Con1 (genotype 1b) sequence origin.
The conditions of series [5]: general description; cited from earlier work.
Series [6] can be described thus: in vitro. The conditions noted are these: human.
Series [7] relates to Huh7 cells expressing a subgenomic RNA replicon of Con1 (genotype 1b) sequence origin. In words: microbe, parasite or virus in culture. Particulars: Hepatitis C virus.
Series [8] has as its target SRI (Homo sapiens, UniProt P31645). In words: BBB/Neurotransmitter Binding: SRI.
The test system of series [9] is influenza A/PR/8/34. Also on record: species or system C57/BL6 mice. The conditions noted are these: mouse, in vivo.
The target of series [10] is T1, HER1-2 (Homo sapiens, UniProt P04626).
T1 construct: the other entry of the earlier key: EGFR (P00533, Epidermal growth factor receptor)
Particulars: selective HER1 inhibitor (vs. HER1-2); cited from earlier work.

Setting [11] is: GETYPE1B, Huh-7, 72 h, read-out: Max Effect @CC30 (inhibition).
[12] abbreviates: Huh-7, read-out: IC50 (uM) [SG].
[13] abbreviates: Huh-7, read-out: Max Effect@CC30 (inhibition).
Setting [14] is: Huh-7, read-out: Max effect @CC30 (%).

“And” between values parts separate entries of the source, which are not always exact repeats. Identical values can stand only once. “Also recorded” adds a separate entry of the source. Like-named read-outs stand apart in the source and are kept apart here.

NRI, sequence (P23975 whole entry): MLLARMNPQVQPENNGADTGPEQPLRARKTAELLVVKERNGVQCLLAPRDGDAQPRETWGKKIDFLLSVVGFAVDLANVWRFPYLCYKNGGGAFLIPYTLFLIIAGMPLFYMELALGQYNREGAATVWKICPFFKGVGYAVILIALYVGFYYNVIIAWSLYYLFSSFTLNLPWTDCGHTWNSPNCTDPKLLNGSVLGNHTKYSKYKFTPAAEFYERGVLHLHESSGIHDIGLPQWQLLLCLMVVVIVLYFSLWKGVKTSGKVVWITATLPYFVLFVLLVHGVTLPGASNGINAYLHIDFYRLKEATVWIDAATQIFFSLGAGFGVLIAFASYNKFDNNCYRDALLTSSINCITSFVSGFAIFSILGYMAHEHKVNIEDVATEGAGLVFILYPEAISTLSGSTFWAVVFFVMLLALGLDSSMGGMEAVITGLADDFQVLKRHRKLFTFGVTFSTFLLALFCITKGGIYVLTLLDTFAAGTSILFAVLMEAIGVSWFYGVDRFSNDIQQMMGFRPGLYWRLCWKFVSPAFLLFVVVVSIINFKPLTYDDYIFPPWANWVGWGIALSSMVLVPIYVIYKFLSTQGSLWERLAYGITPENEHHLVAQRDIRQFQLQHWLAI
SRI, sequence (P31645 whole entry): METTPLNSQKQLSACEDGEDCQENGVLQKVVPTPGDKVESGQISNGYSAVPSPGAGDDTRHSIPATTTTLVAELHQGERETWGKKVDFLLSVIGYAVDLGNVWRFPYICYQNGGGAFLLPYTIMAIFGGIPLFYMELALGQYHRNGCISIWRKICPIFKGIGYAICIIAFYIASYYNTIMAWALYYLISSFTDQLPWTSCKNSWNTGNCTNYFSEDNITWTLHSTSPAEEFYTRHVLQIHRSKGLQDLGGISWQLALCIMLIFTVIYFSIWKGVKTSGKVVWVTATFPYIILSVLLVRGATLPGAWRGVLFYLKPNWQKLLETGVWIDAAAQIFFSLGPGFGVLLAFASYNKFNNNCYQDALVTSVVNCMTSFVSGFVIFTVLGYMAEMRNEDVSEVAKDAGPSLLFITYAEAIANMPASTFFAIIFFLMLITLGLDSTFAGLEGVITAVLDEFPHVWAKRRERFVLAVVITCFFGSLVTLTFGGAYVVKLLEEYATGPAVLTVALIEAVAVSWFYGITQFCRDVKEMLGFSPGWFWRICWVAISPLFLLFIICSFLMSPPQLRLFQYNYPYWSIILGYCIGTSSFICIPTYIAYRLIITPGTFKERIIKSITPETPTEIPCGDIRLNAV
T1 sequence (P04626 with tags, fused parts or gaps): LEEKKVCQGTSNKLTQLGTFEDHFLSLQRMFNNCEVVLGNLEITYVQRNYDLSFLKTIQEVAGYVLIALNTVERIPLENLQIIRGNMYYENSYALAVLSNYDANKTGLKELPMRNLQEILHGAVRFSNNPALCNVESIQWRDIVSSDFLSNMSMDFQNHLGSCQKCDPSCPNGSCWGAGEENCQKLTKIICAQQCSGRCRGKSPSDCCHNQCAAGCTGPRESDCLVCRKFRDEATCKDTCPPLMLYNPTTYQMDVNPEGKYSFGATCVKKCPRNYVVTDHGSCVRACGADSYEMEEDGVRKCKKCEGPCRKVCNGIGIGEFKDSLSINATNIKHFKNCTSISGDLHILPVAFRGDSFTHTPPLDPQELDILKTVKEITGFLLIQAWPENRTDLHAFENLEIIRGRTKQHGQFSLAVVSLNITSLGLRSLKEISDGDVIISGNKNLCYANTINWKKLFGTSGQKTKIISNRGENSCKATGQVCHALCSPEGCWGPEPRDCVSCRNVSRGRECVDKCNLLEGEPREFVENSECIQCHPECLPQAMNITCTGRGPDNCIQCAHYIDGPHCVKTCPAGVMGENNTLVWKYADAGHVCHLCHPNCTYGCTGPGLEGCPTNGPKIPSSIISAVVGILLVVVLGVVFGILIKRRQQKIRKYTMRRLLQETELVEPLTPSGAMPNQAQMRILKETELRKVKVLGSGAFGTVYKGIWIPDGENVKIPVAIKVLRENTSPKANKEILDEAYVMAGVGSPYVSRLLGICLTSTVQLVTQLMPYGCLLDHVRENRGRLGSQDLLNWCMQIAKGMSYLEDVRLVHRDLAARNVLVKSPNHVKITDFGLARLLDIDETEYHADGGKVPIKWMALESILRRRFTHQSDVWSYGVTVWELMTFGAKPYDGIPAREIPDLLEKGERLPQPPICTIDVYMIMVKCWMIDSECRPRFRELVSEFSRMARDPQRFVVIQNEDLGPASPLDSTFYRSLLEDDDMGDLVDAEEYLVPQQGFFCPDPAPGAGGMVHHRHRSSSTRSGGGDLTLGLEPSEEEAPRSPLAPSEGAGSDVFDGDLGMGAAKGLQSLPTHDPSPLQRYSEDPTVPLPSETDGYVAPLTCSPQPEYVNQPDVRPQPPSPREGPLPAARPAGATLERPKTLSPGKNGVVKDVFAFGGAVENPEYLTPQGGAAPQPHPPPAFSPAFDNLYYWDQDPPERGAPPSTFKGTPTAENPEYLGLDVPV

As usually defined, the IC90 is the concentration at which the effect reaches the 90% level. High values mean weaker potency, low ones greater potency. The term IC50 denotes the concentration that inhibits the measured activity by half. On to `CN[C@H]1CC[C@@H](c2ccc(Cl)c(Cl)c2)c2ccc(C(N)=O)cc21` [Sertraline A-ring carboxamide], for which, in [1], the “Pharmcokinetics: Brain levels compared with sertraline” value is recorded as “IC50, Brain levels lower” and the “Pharmcokinetics: overall assessment” value was “Optimal PK. Liver”. Also, in series [2], the “BBB/Neurotransmitter Binding (nM) NRI” value worked out at 410 nM. In addition, the CC50 in series [3] is 16.2 ± 0.57 µM. Further, in [4], the IC90 was 5.4 ± 1.81 µM, the “Max Effect@CC30 (inhibition)” value amounted to 94.5 ± 0.7% and the “Max effect @CC30 (%)” value stood at 94.5 ± 0.7%. In series [4] (read-out: IC50 (uM) [SG]), the half-inhibitory concentration (IC50) amounted to 1.8 ± 0.18 µM. In addition, the IC50 in series [4] (read-out: SA IC50) amounted to 1.8 µM.
On to `CC(=O)OC[C@H]1O[C@@H]([S-])[C@H](OC(C)=O)[C@@H](OC(C)=O)[C@@H]1OC(C)=O.CCP(CC)CC.[Au+]` [Auranofin, reference compound], for which, in [4], the concentration for half-maximal inhibition (IC50) stood at 1.07 µM. In series [5], the “solubility in water (in words)” value is “insoluble in water”.
As for `CN[C@H]1CC[C@@H](c2ccc(Cl)c(Cl)c2)c2ccc(NS(C)(=O)=O)cc21` [Sertraline (Reverse) Methanesulfonamide, N-((5S,8S)-5-(3,4-dichlorophenyl)-8-(methylamino)-5,6,7,8-tetrahydronaphthalen-2-yl)methanesulfonamide], the “Pharmcokinetics: Brain levels compared with sertraline” value in series [1] is recorded as “lower sertraline”. In series [1], the “Pharmcokinetics: Liver levels compared with sertraline” value is “much greater”. The “Pharmcokinetics: overall assessment” value in [1] is “Optimal PK, Liver levels”. For the same molecule, the “BBB/Neurotransmitter Binding (nM) NRI” value in series [2] amounted to 60 nM. The CC50 turned out to be 12.9 µM in series [6] (CC50), 12.9 ± 0.3 µM in [6] (CC50 (uM)) and 12.9 ± 0.3 µM in series [6] (CC50 (uM) [SG]). For the same molecule, the Emax in series [7] (setting [11]) is 83.3 ± 20.2%; in series [7] (Huh-7, 48 h, read-out: Max Effect) it was 95%; in series [7] (setting [13]) it was 83.3 ± 20.2%; in [7] (setting [14]), 83.3 ± 20.2%. The concentration for half-maximal inhibition (IC50) in series [7] (Huh-7, 48 h) came out at 6.43 µM; in series [7] (Huh-7, 72 h), 3.99 ± 0.8 µM; in series [7] (setting [12]), 3.99 ± 0.8 µM; in series [7] (Huh-7, read-out: SA IC50 (uM)) it was 3.99 ± 0.8 µM.
As to `CN[C@H]1CC[C@@H](c2ccc(Cl)c(Cl)c2)c2ccc(C[S+](C)[O-])cc21` (stereo partly drawn) [(1S,4S)-4-(3,4-dichlorophenyl)-N-methyl-7-(methylsulfinylmethyl)-1,2,3,4-tetrahydronaphthalen-1-amine], the “BBB/Neurotransmitter Binding (nM) NRI” value in series [2] amounted to 450 nM. In addition, in [8], the “BBB/Neurotransmitter Binding (nM) SRI” value is reported as 340 nM. The CC50 was determined as 15.3 µM in [3] (human) and 14.8 ± 0.97 µM in series [6] (CC50 (uM) [SG]). Besides, the concentration for an effect of 90% (IC90) in [4] is 5.17 µM and 5.15 µM; in series [7] (Huh-7), 5.13 ± 0.16 µM. Moreover, the half-inhibitory concentration (IC50) in series [4] (read-out: IC50 (uM) [SG]) was determined as 1.55 µM; in series [7] (setting [12]), 1.34 ± 0.26 µM; in series [7] (Huh-7, read-out: SA IC50 (uM)) it was 1.46 ± 0.23 µM. Further, the Emax in series [7] (setting [13]) is 96.5 ± 2.6%; in series [7] (setting [14]), 97.9 ± 1.1%.
`CN[C@H]1CC[C@@H](c2ccc(Cl)c(Cl)c2)c2ccccc21` [Sertraline, sertraline, reference compound]: the values for the CC50 in [3] (human) and in [6] (CC50 (uM)) were 7.7 µM and 7.98 µM, respectively. The “effect on survival rate (in words)” value in series [9] is reported as “dose dependant increase in survival rate; also recorded: improves survival rate”. Further, the results for the IC90 in series [4] and in series [7] (Huh-7) were 9.65 µM and 11.3 µM, respectively. Besides, in [4], the “Max Effect@CC30 (inhibition)” value amounted to 75.12%. The Emax came out at 68.5% in [7] (Huh-7, read-out: Max Effect @CC30 (inhibition)) and 62.6 ± 21.5% in series [7] (setting [14]).
Take `N#C/C(=C\c1ccc(O)c(O)c1)C(=O)Nc1ccccc1` [AG-494, AG 494, reference compound]: the IC50 was 45 µM in series [10] and 3.45 µM in series [4].
As for `CSc1ccc(Oc2ccc(S(N)(=O)=O)cc2CN(C)C)cc1C` [UK-416244, 3-((dimethylamino)methyl)-4-(3-methyl-4-(methylthio)phenoxy)benzenesulfonamide, reference compound], the “Pharmcokinetics: Brain levels compared with sertraline” value in series [1] is “lower than sertraline”. The “Pharmcokinetics: Liver levels, fold over IC50” value in series [1] is “sertraline, 511 fold over”. The “Pharmcokinetics: overall assessment” value in series [1] is “Optimal PK, Liver”. Besides, the “BBB/Neurotransmitter Binding (nM) SRI” value in series [8] (Table 19) is given as less than 5 nM. For the same molecule, the values for the CC50 in [6] (CC50 (uM)) and in series [6] (CC50 (uM) [SG]) were 327 µM and more than 50 µM, respectively. Moreover, the IC90 was 6.55 µM in [4]; 6.17 ± 3.23 µM in [7] (Huh-7); 9.86 µM in [7] (Huh-7, 72 h). In addition, the IC50 in series [4] (read-out: IC50 (uM) [SG]) was found to be 1.74 µM; in series [7] (Huh-7), 1.41 µM; in series [7] (Huh-7, 72 h), 1.63 µM; in [7] (setting [12]), 1.41 ± 0.2 µM; in series [7] (Huh-7, read-out: SA IC50 (uM)), 1.41 ± 0.2 µM. Besides, the Emax in series [7] (setting [11]) came to 97%; in series [7] (setting [13]), 97.2 ± 1.4%; in [7] (setting [14]) it was 97.2 ± 1.4%.

(Values after patent publication US20100009970A1, “COMPOSITIONS AND METHODS FOR TREATMENT OF VIRAL DISEASES” (Combinatorx (Singapore) Pte. Ltd., priority 2008, published 2010).)
